Measurements reported in patent publication US12570657B2, “Mesylate salts of heterocyclic cytokinins, compositions containing these derivatives and use thereof” (UNIVERZITA PALACKEHO V OLOMOUCI, priority 2020, dated 2026).

tested on: K562 (chronic myeloid leukemia); assay: In vitro cytotoxicity, Calcein AM assay, K-562; format: cell-based; conditions: Homo sapiens, K562, 72 h, 3-day Calcein-AM assay
Source text: (§1) Because toxic compounds adversely affect cell metabolic processes, many standard cytotoxicity assays are based on measuring the rate of metabolism of various artificial substrates. The resulting product is then quantified, for example, by spectrometry. Assays can be easily modified for use in 96-well plates, A microtiter assay based on the quantification of Calcein AM metabolism was used to evaluate the cytotoxicity of cytokinins, for example meta-topolin, ortho-topolin, kinetin, BAP or its mesylate salts, but also a number of other cytokinin mesylate derivatives according to the invention. The test is widely used in drug screening programs and in chemosensitivity testing. In living cells, Calcein AM is enzymatically hydrolyzed and the accumulation of the resulting calcein is manifested by green fluorescence. […] These cells were maintained in standard DMEM or RPMI medium (Sigma, MO, USA) supplemented with heat-inactivated fetal bovine serum (10%) with 2 mM L-glutamine and penicillin-streptomycin (1%) under standard cell culture conditions (37° C., 5% CO2 in a humid environment) and subcultured two or three times a week using a standard trypsinization procedure. Approximately 10,000 cells in 80 μl of medium were seeded in a 96-well microtiter plate. After 12 hours of incubation, the compounds to be tested were added in 20 μl aliquots. Control cultures were treated with DMSO alone. […] After 72 hours of incubation, Calcein AM solution (Molecular Probes) was added to a final concentration of 1 μg/ml and the cells were incubated for another hour.
(§2) Cytoxicity of compounds was tested on panel of cell lines of different histogenetic and species origin.

Compound | IC50
Fc1ccccc1CNc1ncnc2nc[nH]c12 [2FBAP, 6-(2-fluorobenzylamino)purine] | 136 µM
Fc1ccc(CNc2ncnc3nc[nH]c23)cc1 [4FBAP, 6-(4-fluorobenzylamino)purine] | > 167 µM
Fc1cccc(CNc2ncnc3nc[nH]c23)c1 [3FBAP, 6-(3-fluorobenzylamino)purine] | 105 µM
COc1ccc(CNc2ncnc3nc[nH]c23)cc1 [4MeOBAP, 6-(4-methoxybenzylamino)purine] | > 167 µM
Clc1ccccc1CNc1ncnc2nc[nH]c12 [2ClBAP, 6-(2-chlorobenzylamino)purine] | 101 µM

tested on: G361 (malignant melanoma); assay: In vitro cytotoxicity, Calcein AM assay, G-361; format: cell-based; conditions: Homo sapiens, 72 h, 3-day Calcein-AM assay
Source text: (§3) Because toxic compounds adversely affect cell metabolic processes, many standard cytotoxicity assays are based on measuring the rate of metabolism of various artificial substrates. The resulting product is then quantified, for example, by spectrometry. Assays can be easily modified for use in 96-well plates, A microtiter assay based on the quantification of Calcein AM metabolism was used to evaluate the cytotoxicity of cytokinins, for example meta-topolin, ortho-topolin, kinetin, BAP or its mesylate salts, but also a number of other cytokinin mesylate derivatives according to the invention. The test is widely used in drug screening programs and in chemosensitivity testing. In living cells, Calcein AM is enzymatically hydrolyzed and the accumulation of the resulting calcein is manifested by green fluorescence. The following cell lines—RPMI 8226 (multiple myeloma), CEM (T-lymphoblastic leukemia), K562 (chronic myeloid leukemia), HL-60 (promyelocytic, leukemia), MCF-7 (breast adenocarcinoma), HeLa (cervical cancer), G361 (malignant melanoma), HOS (human osteosarcoma) and BJ (human foreskin fibroblasts)—were obtained from the American Type Culture Collection (Manassas, VA, USA). These cells were maintained in standard DMEM or RPMI medium (Sigma, MO, USA) supplemented with heat-inactivated fetal bovine serum (10%) with 2 mM L-glutamine and penicillin-streptomycin (1%) under standard cell culture conditions (37° C., 5% CO2 in a humid environment) and subcultured two or three times a week using a standard trypsinization procedure. Approximately 10,000 cells in 80 μl of medium were seeded in a 96-well microtiter plate. After 12 hours of incubation, the compounds to be tested were added in 20 μl aliquots. Control cultures were treated with DMSO alone. […] Serial, 3-fold dilutions (six in total, peak concentrations in 166 μM incubations) of each compound were tested. After 72 hours of incubation, Calcein AM solution (Molecular Probes) was added to a final concentration of 1 μg/ml and the cells were incubated for another hour. Free calcein fluorescence was then quantified using a Fluoroscan Ascent fluorometer (Microsystems), and the percentage of surviving cells in each well was calculated by dividing the OD obtained from each cell by the exposed cells by the mean OD obtained from control wells×100%, Finally, IC50 values (concentration causing a 50% decrease in cellular esterase activity) were calculated for each compound generated from dose-response curves (Krys̆tof et al., 2005, Bioorg. Med. Chem. Lett. 12, 3283-3286). The IC50 values reported here are averages obtained from at least three independent experiments, where the individual replication values fell within 20% of the average. Growth inhibition was calculated using the following equation: IC50=(mean FDwell exposed to drug−mean FDblank)/(mean FDcontrol well−mean FDblank)×100%.
as §2

Compound | IC50
Fc1ccccc1CNc1ncnc2nc[nH]c12 [2FBAP, 6-(2-fluorobenzylamino)purine] | 106 µM
Clc1cccc(CNc2ncnc3nc[nH]c23)c1 [3ClBAP, 6-(3-chlorobenzylamino)purine] | 149 µM
Fc1ccc(CNc2ncnc3nc[nH]c23)cc1 [4FBAP, 6-(4-fluorobenzylamino)purine] | > 167 µM
Fc1cccc(CNc2ncnc3nc[nH]c23)c1 [3FBAP, 6-(3-fluorobenzylamino)purine] | > 167 µM
COc1ccc(CNc2ncnc3nc[nH]c23)cc1 [4MeOBAP, 6-(4-methoxybenzylamino)purine] | ≥ 167 µM
Clc1ccccc1CNc1ncnc2nc[nH]c12 [2ClBAP, 6-(2-chlorobenzylamino)purine] | 56.6 µM

tested on: CEM (T-lymphoblastic leukemia); assay: In vitro cytotoxicity, Calcein AM assay, CEM; format: cell-based; conditions: 72 h, 3-day Calcein-AM assay
Source text: as §1, §2

Compound | IC50
Fc1ccccc1CNc1ncnc2nc[nH]c12 [2FBAP, 6-(2-fluorobenzylamino)purine] | 98 µM
Clc1cccc(CNc2ncnc3nc[nH]c23)c1 [3ClBAP, 6-(3-chlorobenzylamino)purine] | > 167 µM
Fc1ccc(CNc2ncnc3nc[nH]c23)cc1 [4FBAP, 6-(4-fluorobenzylamino)purine] | 66.4 µM
Fc1cccc(CNc2ncnc3nc[nH]c23)c1 [3FBAP, 6-(3-fluorobenzylamino)purine] | > 167 µM
COc1ccc(CNc2ncnc3nc[nH]c23)cc1 [4MeOBAP, 6-(4-methoxybenzylamino)purine] | > 167 µM
Clc1ccccc1CNc1ncnc2nc[nH]c12 [2ClBAP, 6-(2-chlorobenzylamino)purine] | 58.4 µM

tested on: HOS (human osteosarcoma); assay: In vitro cytotoxicity, Calcein AM assay, HOS; format: cell-based; conditions: Homo sapiens, 72 h, 3-day Calcein-AM assay
Source text: as §1, §2

Compound | IC50
Fc1ccccc1CNc1ncnc2nc[nH]c12 [2FBAP, 6-(2-fluorobenzylamino)purine] | > 167 µM
Clc1cccc(CNc2ncnc3nc[nH]c23)c1 [3ClBAP, 6-(3-chlorobenzylamino)purine] | > 167 µM
Fc1ccc(CNc2ncnc3nc[nH]c23)cc1 [4FBAP, 6-(4-fluorobenzylamino)purine] | > 167 µM
Fc1cccc(CNc2ncnc3nc[nH]c23)c1 [3FBAP, 6-(3-fluorobenzylamino)purine] | > 167 µM
COc1ccc(CNc2ncnc3nc[nH]c23)cc1 [4MeOBAP, 6-(4-methoxybenzylamino)purine] | > 167 µM
Clc1ccccc1CNc1ncnc2nc[nH]c12 [2ClBAP, 6-(2-chlorobenzylamino)purine] | 84.9 µM

tested on: MCF-7 (breast adenocarcinoma); assay: In vitro cytotoxicity, Calcein AM assay, MCF7; format: cell-based; conditions: Homo sapiens, MCF7, 72 h, 3-day Calcein-AM assay
Source text: as §1, §2

Compound | IC50
Fc1ccccc1CNc1ncnc2nc[nH]c12 [2FBAP, 6-(2-fluorobenzylamino)purine] | > 167 µM
Clc1cccc(CNc2ncnc3nc[nH]c23)c1 [3ClBAP, 6-(3-chlorobenzylamino)purine] | > 167 µM
Fc1ccc(CNc2ncnc3nc[nH]c23)cc1 [4FBAP, 6-(4-fluorobenzylamino)purine] | > 167 µM
Fc1cccc(CNc2ncnc3nc[nH]c23)c1 [3FBAP, 6-(3-fluorobenzylamino)purine] | 163 µM
COc1ccc(CNc2ncnc3nc[nH]c23)cc1 [4MeOBAP, 6-(4-methoxybenzylamino)purine] | > 167 µM
Clc1ccccc1CNc1ncnc2nc[nH]c12 [2ClBAP, 6-(2-chlorobenzylamino)purine] | 164 µM

tested on: HL-60 (promyelocytic, leukemia); assay: In vitro cytotoxicity, Calcein AM assay, HL60; format: cell-based; conditions: Homo sapiens, HL-60, 72 h, 3-day Calcein-AM assay
Source text: as §1, §2

Compound | IC50
Clc1cccc(CNc2ncnc3nc[nH]c23)c1 [3ClBAP, 6-(3-chlorobenzylamino)purine] | > 167 µM
Fc1ccc(CNc2ncnc3nc[nH]c23)cc1 [4FBAP, 6-(4-fluorobenzylamino)purine] | 59.2 µM
Fc1cccc(CNc2ncnc3nc[nH]c23)c1 [3FBAP, 6-(3-fluorobenzylamino)purine] | > 167 µM
COc1ccc(CNc2ncnc3nc[nH]c23)cc1 [4MeOBAP, 6-(4-methoxybenzylamino)purine] | > 167 µM
Clc1ccccc1CNc1ncnc2nc[nH]c12 [2ClBAP, 6-(2-chlorobenzylamino)purine] | 110 µM

tested on: NIH-3T3; assay: In vitro cytotoxicity, Calcein AM assay, NIH-3T3; format: cell-based; conditions: Mus musculus, NIH3T3, 72 h, 3-day Calcein-AM assay
Source text: as §3, with “Growth inhibition was calculated using the following equation: IC50=(mean FDwell exposed to drug−mean FDblank)/(mean FDcontrol well−mean FDblank)×100%.” left out

Compound | IC50
COc1ccc(CNc2ncnc3nc[nH]c23)cc1 [4MeOBAP, 6-(4-methoxybenzylamino)purine] | > 167 µM
Clc1ccccc1CNc1ncnc2nc[nH]c12 [2ClBAP, 6-(2-chlorobenzylamino)purine] | > 167 µM

tested on: cytokinin-dependent tobacco callus; assay: Tobacco callus biotest (stimulation of plant cell division); format: cell-based, Nicotiana tabacum L. cv. Wisconsin 38; conditions: callus growth at concentration with highest activity; 10^−5 M BAP = 100%
Method: Stimulation effect of the cytokinin mesylates was tested in tobacco callus biotest using cytokinin dependent tobacco callus. Cytokinin-dependent tobacco callus Nicotiana tabacum L. cv. […] Subcultivation was carried out every three weeks. Fourteen days before the bioassay, the callus tissue was transferred to the media without BAP. Biological activity was determined from the increase in fresh callus weight after four weeks of cultivation. Five replicates were prepared for each cytokinin concentration and the entire test was repeated twice. […] Relative activity of the compound at this concentration was calculated (Tab. 15). The activity obtained for 10^−5 M 6-benzylaminopurine (BAP) was postulated as 100%. The cytokinin bases to be tested were dissolved in dimethylsulfoxide (DMSO) and the solution brought up to 10^−3 M with distilled water. The mesylate salts were dissolved directly in distilled water.

Compound | activity (%) [10^−5 mol · l^−1 BAP = 100%]
Clc1cccc(CNc2ncnc3nc[nH]c23)c1 [3ClBAP, 6-(3-chlorobenzylamino)purine] | 94%
Clc1ccccc1CNc1ncnc2nc[nH]c12 [2ClBAP, 6-(2-chlorobenzylamino)purine] | 93%
